# ChEMBL document CHEMBL5523667, “Blood-stage antimalarial activity, favourable metabolic stability and in vivo toxicity of novel piperazine linked 7-chloroquinoline-triazole conjugates” (Eur J Med Chem, 2024)
# Target: T1, Falcipain-3 (Plasmodium falciparum 3D7, UniProt Q8IIL0)
# T1 sequence (Q8IIL0 whole entry): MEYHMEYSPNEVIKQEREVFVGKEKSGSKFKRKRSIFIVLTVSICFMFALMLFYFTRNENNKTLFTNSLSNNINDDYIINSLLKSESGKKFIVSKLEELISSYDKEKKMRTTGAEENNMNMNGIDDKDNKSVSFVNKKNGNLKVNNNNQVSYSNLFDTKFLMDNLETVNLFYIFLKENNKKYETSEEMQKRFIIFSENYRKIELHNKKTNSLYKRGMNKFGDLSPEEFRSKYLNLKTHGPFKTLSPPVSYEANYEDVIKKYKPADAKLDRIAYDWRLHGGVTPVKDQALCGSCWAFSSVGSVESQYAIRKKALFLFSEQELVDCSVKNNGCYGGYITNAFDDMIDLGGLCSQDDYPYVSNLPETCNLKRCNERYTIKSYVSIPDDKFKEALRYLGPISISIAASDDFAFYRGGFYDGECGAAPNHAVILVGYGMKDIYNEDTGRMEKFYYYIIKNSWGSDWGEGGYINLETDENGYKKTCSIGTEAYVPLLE
# Experiment: Binding affinity to N-terminal 6His-tagged recombinant Plasmodium falciparum FP3 expressed in Escherichia coli M15 assessed as dissociation constant incubated for 15 mins in presence of lysine reactive dye by microscale thermophoretic analysis
smiles,measurement,value
O=C(Cn1cc(CN2CCN(c3ccnc4cc(Cl)ccc34)CC2)nn1)Nc1cccc([N+](=O)[O-])c1,Kd,54.4 µM
